Consider two molecules from article PMC4012454 (Marine Drugs, 2014).

In one data set the target is brevenal receptor. Format: binding.
Data set [1] addresses brevetoxin receptor (site five of voltage gated sodium channels). Format: binding.
The subject of another data set is sheep. The following applies: in vivo; cited from earlier work.

As a reminder, the Ki is a measure of affinity in units of concentration, obtained from inhibition or displacement. Read a low Ki as higher affinity. `C=C/C=C\CC[C@H]1O[C@H]2CC[C@@]3(C)O[C@H]4[C@@H](O)C[C@@]5(C)O[C@@H](CC/C=C(C)/C(C)=C/C=O)[C@@H](C)C[C@H]5O[C@@H]4C[C@@H]3O[C@@H]2CC[C@@]1(C)O` [Compound 3, brevenal]: the results for the Ki (at brevenal receptor; in data set [1]) were 137 ± 16 nM and 1130 ± 153 nM, respectively. Further, the “bronchoconstriction (effect on RL)” value in the data set on sheep is given as “no effects observed”.

For the molecule `C=C(C=O)C[C@@H]1C[C@H](O)[C@]2(C)O[C@@H]3C[C@@H]4O[C@@H]5C[C@]6(C)O[C@]7(C)CC[C@@H]8O[C@@H]9C[C@]%10(C)O[C@@H]%11C(C)=CC(=O)O[C@H]%11C[C@H]%10O[C@H]9C[C@@H](C)[C@H]8O[C@H]7C[C@H]6O[C@H]5C/C=C\[C@H]4O[C@H]3C[C@H]2O1` [brevetoxin, PbTx-2], the “increase in RL (pulmonary resistance)” value with sheep was 221% ± 21%.
